pIC50: −log10 of the molar value.

One data set relates to HCT-116. The experiment in a line: Antiproliferative activity against human HCT-116 cells assessed as reduction in cell viability incubated for 48 hrs by MTS assay. It is filed as functional, cell-based. The conditions noted are these: HCT-116, 48 h.
For another data set, the system named is HeLa. Nature of the data set: Antiproliferative activity against human HeLa cells assessed as reduction in cell viability incubated for 48 hrs by MTS assay. It is filed as functional, cell-based. In general terms: Formazan colour is commonly taken as a measure of viable cells.
Another data set deals with HL-60. Nature of the data set: Antiproliferative activity against human HL-60 cells assessed as reduction in cell viability incubated for 48 hrs by MTS assay. It is filed as functional, cell-based. Particulars: HL-60, 48 h.
The test system of a further data set is A549. The experiment in a line: cells. Particulars: Homo sapiens, A549, 48 h.
Data set [1] in a line: Resistance index, ratio of IC50 for antiproliferative activity against human A549/PTX cells assessed as reduction in cell viability to IC50 for antiproliferative activity against human A549 cells assessed as reduction in cell viability. It is filed as functional.
Data set [2] is described as follows: Antiproliferative activity against human A549/PTX cells assessed as reduction in cell viability measured for 48 hrs by MTS assay. Type of data set: functional, cell-based.
Data set [3] in a line: Metabolic stability in rat liver microsomes assessed as intrinsic clearance incubated for 5 mins in presence of NADPH by HPLC analysis. It is filed as ADME, Microsome. Particulars: read-out: CLH. In general terms: Liver microsomes are vesicles of endoplasmic reticulum, rich in cytochrome P450 enzymes.

Description for A549: Antiproliferative activity against human A549 cells assessed as reduction in cell viability incubated for 48 hrs by MTS assay

For the compound `COc1cc(C(=O)c2nc(Nc3cccc(C)c3)nc3ccsc23)cc(OC)c1OC`, the pIC50 with HCT-116 is 6.82; in the data set with HeLa it was 7.28.
`CCOc1nc(C(=O)c2cc(OC)c(OC)c(OC)c2)c2sccc2n1`: the pIC50 in the data set on HL-60 is 5.15; in the data set with HCT-116, below 5.00; in the data set with HeLa, below 5.00; with A549, below 5.00.
Consider `CNc1nc(C(=O)c2cc(OC)c(OC)c(OC)c2)c2sccc2n1`, for which the pIC50 in the data set with HL-60 is 7.49; in the data set with HCT-116 it was 6.94; in the data set on HeLa it was 7.24; in the data set on A549, 7.35.
The like results for `COc1cc(C(=O)c2nc(N3CCC(F)(F)C3)nc3ccsc23)cc(OC)c1OC` were, in that order, 6.42, 6.29, 6.45 and 6.52.
For `CCNc1nc(C(=O)c2cc(OC)c(OC)c(OC)c2)c2sccc2n1` the same measures were 6.76, 6.51, 7.43 and 6.83.
The like results for `COc1cc(C(=O)c2nc(C3CCCC3)nc3ccsc23)cc(OC)c1OC` were, in that order, below 5.00, below 5.00, below 5.00 and below 5.00.
On to `COc1nc(C(=O)c2cc(OC)c(OC)c(OC)c2)c2sccc2n1`, for which the pIC50 with HL-60 is 6.65; with HCT-116 it was 6.48; in the data set with HeLa it was 6.58; in the data set on A549, 6.02.
Turning to `CC(=O)O[C@H]1C(=O)[C@@]2(C)[C@H]([C@H](OC(=O)c3ccccc3)[C@]3(O)C[C@H](OC(=O)[C@H](O)[C@@H](NC(=O)c4ccccc4)c4ccccc4)C(C)=C1C3(C)C)[C@]1(OC(C)=O)CO[C@@H]1C[C@@H]2O` [PACLITAXEL], in data set [1], the “Ratio IC50” value is reported as 964. Moreover, the pIC50 in data set [2] was 5.99; with A549, 8.96.
As to `COc1cc(C(=O)c2nc(N(C)C)nc3ccsc23)cc(OC)c1OC`, the pIC50 is 6.27 in the data set with HL-60, below 5.00 in the data set with HCT-116, 5.91 in the data set with HeLa and below 5.00 with A549.
As for `O=C(O)Cc1ccccc1Nc1c(Cl)cccc1Cl` [DICLOFENAC], the microsomal CLint in data set [3] amounted to 64.2 µL/min/mg.
For the compound `COc1cc(C(=O)c2nc(N3CCS(=O)(=O)CC3)nc3ccsc23)cc(OC)c1OC`, the pIC50 with HL-60, in the data set on HCT-116, with HeLa and in the data set on A549 was below 5.00 in each case.
As for `COc1cc(C(=O)c2nc(NC3CCCCC3)nc3ccsc23)cc(OC)c1OC`, the pIC50 is 5.61 with HL-60, below 5.00 in the data set with HCT-116, below 5.00 in the data set on HeLa and below 5.00 in the data set with A549.
`COc1cc(C(=O)c2nc(NC3CCCC3)nc3ccsc23)cc(OC)c1OC`: the pIC50 in the data set with HL-60 was 5.08; in the data set with HCT-116, below 5.00; in the data set on HeLa it was below 5.00; in the data set with A549 it was below 5.00.
Regarding `COc1cc(C(=O)c2nc(N3CCNCC3)nc3ccsc23)cc(OC)c1OC`, the negative logarithm of the IC50 (pIC50) in the data set on HL-60, in the data set with HCT-116, with HeLa and in the data set on A549 was below 5.00 throughout.
Take `COc1cc(C(=O)c2nc(N3CC=CC3)nc3ccsc23)cc(OC)c1OC`: the pIC50 in the data set with HL-60 was 7.03; in the data set with HCT-116, 7.59; with HeLa, 7.66; with A549, 7.00.
For `COc1cc(C(=O)c2nc(N(C)C3CCCCC3)nc3ccsc23)cc(OC)c1OC` the same measures were below 5.00, below 5.00, below 5.00 and below 5.00.
Regarding `COc1cc(C(=O)c2nc(N3CCCC3)nc3cc(C)sc23)cc(OC)c1OC`, the pIC50 with HL-60 was 6.91; in the data set with HCT-116, 5.76; with HeLa, 6.71; in the data set on A549, 6.34.
In the case of `COc1cc(C(=O)c2nc(N3CCCCC3)nc3ccsc23)cc(OC)c1OC`, the pIC50 is 5.95 with HL-60, below 5.00 in the data set with HCT-116, 5.92 with HeLa and below 5.00 in the data set on A549.
Regarding `COc1cc(C(=O)c2nc(N3CCC3)nc3ccsc23)cc(OC)c1OC`, the pIC50 in the data set on HL-60 was 6.31; with HCT-116 it was 6.56; in the data set with HeLa it was 6.12; in the data set with A549 it was 5.50.
For `COc1cc(C(=O)c2nc(N3CCC(O)C3)nc3ccsc23)cc(OC)c1OC` (configuration not stated) the same measures were 5.46, 5.85, 5.66 and 5.30.
The like results for `COc1cc(C(=O)c2nc(Cl)nc3ccsc23)cc(OC)c1OC` were, in that order, 6.05, 6.65, 5.94 and 6.02.
For `COc1cc(C(=O)c2nc(N3CCN(C)CC3)nc3ccsc23)cc(OC)c1OC` the same measures were below 5.00, below 5.00, below 5.00 and below 5.00.
Regarding `COc1ccc(C(=O)c2nc(N3CCCC3)nc3ccsc23)cc1OC`, the pIC50 in the data set on HL-60, with HCT-116, in the data set on HeLa and in the data set on A549 was below 5.00 each time.
Turning to `COc1ccc(C(=O)c2nc(N3CCCC3)nc3ccsc23)cc1`, the negative-log IC50 (pIC50) in the data set with HL-60, in the data set on HCT-116, with HeLa and in the data set with A549 was below 5.00 throughout.
Consider `COc1cccc(C(=O)c2nc(N3CCCC3)nc3ccsc23)c1`, for which the pIC50 in the data set with HL-60 is 5.02; in the data set with HCT-116 it was below 5.00; with HeLa, below 5.00; in the data set on A549, below 5.00.
Take `COc1cc(C(=O)c2nc(NC3CCOCC3)nc3ccsc23)cc(OC)c1OC`: the pIC50 with HL-60 is 5.09; in the data set with HCT-116, below 5.00; in the data set on HeLa it was below 5.00; with A549, below 5.00.
With `COc1cc(C(=O)c2nc(NC3CCC3)nc3ccsc23)cc(OC)c1OC`, the pIC50 with HL-60 was 6.19; in the data set on HCT-116, 6.53; in the data set with HeLa, 6.03; in the data set with A549 it was 5.62.
For `CCN(CC)c1nc(C(=O)c2cc(OC)c(OC)c(OC)c2)c2sccc2n1` the same measures were below 5.00, below 5.00, below 5.00 and below 5.00.
For `COc1cc(C(=O)c2nc(N3CCOCC3)nc3ccsc23)cc(OC)c1OC` the same measures were below 5.00, below 5.00, below 5.00 and below 5.00.
With `COc1cc(C(=O)c2nc(N3CCSCC3)nc3ccsc23)cc(OC)c1OC`, the pIC50 in the data set with HL-60, in the data set with HCT-116, with HeLa and in the data set with A549 was below 5.00 in each case.
For the compound `COc1cc(C(=O)c2nc(SC)nc3ccsc23)cc(OC)c1OC`, the pIC50 in the data set on HL-60 is 6.55; with HCT-116, below 5.00; in the data set with HeLa, below 5.00; in the data set with A549, below 5.00.
As to `COc1cc(OC)cc(C(=O)c2nc(N3CCCC3)nc3ccsc23)c1`, the pIC50 was 6.03 in the data set on HL-60, 6.21 with HCT-116, 5.36 in the data set with HeLa and 5.36 in the data set on A549.

One may read the pIC50 as −log10 of the IC50, conventionally taken in molar units.

The values above are taken from ChEMBL document CHEMBL5126582, “Discovery of (2-(pyrrolidin-1-yl)thieno[3,2-d]pyrimidin-4-yl)(3,4,5-trimethoxyphenyl)methanone as a novel potent tubulin depolymerizing and vascular disrupting agent” (Eur J Med Chem, 2022).
